Reference: patent EP0933350A1, “Tricyclic retinoids, methods for their production and use” (LIGAND PHARMACEUTICALS INCORPORATED, priority 1994, dated 1996)

Experiments:
RXRβ = target: T1, RXRβ (Mus musculus, UniProt P28704); assay: competitive binding of tritiated retinoids to retinoid receptors; conditions: competition with tritiated retinoid, Cheng-Prussof equation
T1 sequence (P28704 1-520): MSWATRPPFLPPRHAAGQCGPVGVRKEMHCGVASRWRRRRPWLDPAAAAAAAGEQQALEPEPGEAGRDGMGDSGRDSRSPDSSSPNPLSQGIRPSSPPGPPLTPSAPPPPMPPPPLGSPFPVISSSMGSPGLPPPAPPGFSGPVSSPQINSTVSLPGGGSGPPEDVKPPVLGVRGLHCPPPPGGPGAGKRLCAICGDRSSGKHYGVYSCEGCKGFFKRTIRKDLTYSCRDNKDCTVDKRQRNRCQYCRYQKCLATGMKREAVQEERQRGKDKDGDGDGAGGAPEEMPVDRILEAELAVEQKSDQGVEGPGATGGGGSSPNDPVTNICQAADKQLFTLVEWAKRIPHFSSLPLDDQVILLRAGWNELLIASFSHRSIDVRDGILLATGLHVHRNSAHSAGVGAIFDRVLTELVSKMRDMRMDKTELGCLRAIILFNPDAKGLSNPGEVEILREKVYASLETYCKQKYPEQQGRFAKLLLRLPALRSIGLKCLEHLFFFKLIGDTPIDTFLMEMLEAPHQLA

ME 180 cell line = assay: viability (tetrazolium dye, mitochondrial function); type: cell-based; conditions: Homo sapiens, 96 hours, read-out: MTS IC50
RARα [1] = target: T2, RARα (Homo sapiens, UniProt P10276); assay: competitive binding of tritiated retinoids to retinoid receptors; conditions: competition with tritiated retinoid, Cheng-Prussof equation
T2 sequence (P10276 1-462): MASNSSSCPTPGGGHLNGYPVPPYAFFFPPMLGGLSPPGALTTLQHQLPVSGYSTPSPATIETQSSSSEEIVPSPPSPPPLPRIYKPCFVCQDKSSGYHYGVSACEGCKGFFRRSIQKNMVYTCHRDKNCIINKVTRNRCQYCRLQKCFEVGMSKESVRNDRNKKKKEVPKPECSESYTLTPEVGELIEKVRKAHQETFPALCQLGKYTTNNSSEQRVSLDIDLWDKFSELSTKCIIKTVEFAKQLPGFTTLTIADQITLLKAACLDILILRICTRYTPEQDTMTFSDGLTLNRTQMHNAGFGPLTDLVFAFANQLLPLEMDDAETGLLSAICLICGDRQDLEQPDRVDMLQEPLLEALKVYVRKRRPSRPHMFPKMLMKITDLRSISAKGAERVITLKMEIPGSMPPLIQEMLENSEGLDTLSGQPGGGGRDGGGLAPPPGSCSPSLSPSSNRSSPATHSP

TPA induction of ODC = assay: ornithine decarboxylase (ODC) assay: inhibition of TPA induction of ODC; type: cell-based; conditions: concentration required to inhibit the TPA induction of ODC by 80 percent
RXRγ = target: T3, RXRγ (Mus musculus, UniProt P28705); assay: co-transfection assay (RAR/RXR agonist activity, luciferase reporter in CV-1 cells); type: cell-based; conditions: read-out: RXRγ Pot
T3 sequence (P28705 1-463): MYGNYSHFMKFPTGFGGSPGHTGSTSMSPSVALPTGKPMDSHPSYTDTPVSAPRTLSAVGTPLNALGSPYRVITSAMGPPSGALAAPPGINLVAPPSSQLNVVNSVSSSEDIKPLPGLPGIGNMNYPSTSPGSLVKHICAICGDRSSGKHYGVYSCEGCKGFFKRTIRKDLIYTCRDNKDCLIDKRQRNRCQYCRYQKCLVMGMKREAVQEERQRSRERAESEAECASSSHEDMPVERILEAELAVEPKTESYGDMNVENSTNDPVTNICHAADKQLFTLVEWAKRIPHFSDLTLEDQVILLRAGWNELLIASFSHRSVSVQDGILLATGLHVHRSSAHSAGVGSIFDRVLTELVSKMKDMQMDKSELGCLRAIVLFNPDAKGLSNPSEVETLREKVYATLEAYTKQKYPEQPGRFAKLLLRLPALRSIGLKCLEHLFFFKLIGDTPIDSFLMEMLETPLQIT

RARγ = target: T4, RARγ (Homo sapiens, UniProt P13631); assay: as above; type: cell-based; conditions: potency = EC50, agonist, 40 hours, read-out: RARγ Pot
T4 sequence (P13631 1-454): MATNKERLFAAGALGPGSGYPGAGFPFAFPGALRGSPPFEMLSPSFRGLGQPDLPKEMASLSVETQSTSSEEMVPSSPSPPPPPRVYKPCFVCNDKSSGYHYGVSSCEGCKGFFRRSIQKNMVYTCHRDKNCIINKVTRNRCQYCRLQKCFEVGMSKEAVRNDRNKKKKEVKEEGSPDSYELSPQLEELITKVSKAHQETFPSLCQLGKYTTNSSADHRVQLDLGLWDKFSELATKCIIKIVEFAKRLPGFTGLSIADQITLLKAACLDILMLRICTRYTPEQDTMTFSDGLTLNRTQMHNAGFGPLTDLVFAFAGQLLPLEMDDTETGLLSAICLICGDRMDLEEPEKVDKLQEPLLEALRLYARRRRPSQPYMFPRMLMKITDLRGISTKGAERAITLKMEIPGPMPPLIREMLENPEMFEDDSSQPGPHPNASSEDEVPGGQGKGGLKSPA

RARα [2] = target: T2, RARα; assay: as above; type: cell-based; conditions: read-out: RARα Pot
RARβ = target: T5, RARβ (Homo sapiens, UniProt P10826); assay: as above; type: cell-based; conditions: potency = EC50, agonist, 40 hours, read-out: RARβ Pot
T5 sequence (P10826 1-448 isoform P10826-2): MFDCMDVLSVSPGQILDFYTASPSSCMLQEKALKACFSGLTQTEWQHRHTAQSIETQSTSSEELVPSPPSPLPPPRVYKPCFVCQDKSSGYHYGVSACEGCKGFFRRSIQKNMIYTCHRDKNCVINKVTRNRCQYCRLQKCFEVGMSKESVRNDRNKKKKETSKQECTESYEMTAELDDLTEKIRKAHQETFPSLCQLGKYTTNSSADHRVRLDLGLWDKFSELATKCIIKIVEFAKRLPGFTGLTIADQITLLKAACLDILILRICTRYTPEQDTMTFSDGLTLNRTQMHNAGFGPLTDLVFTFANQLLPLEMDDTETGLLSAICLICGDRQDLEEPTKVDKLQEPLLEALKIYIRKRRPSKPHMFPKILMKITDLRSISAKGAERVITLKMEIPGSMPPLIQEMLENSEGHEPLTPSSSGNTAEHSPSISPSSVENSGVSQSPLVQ

| Compound | Kd (RXRβ) [nM] | IC50 (ME 180 cell line) [nM] | Kd (RARα [1]) [nM] | IC80 (TPA induction of ODC) [nM] | EC50 (RXRγ) [nM] | EC50 (RARγ) [nM] | EC50 (RARα [2]) [nM] | EC50 (RARβ) [nM] |
| --- | --- | --- | --- | --- | --- | --- | --- | --- |
| CC(/C=C/C=C1/CCCc2cc3c(cc21)C(C)(C)CCC3(C)C)=C\C(=O)O [Compound 101b, (2E,4E)-3-Methyl-6-[(Z)-3,4,5,6,7,8-hexahydro-5,5,8,8-tetramethyl-2H-anthracen-1-ylidene]hexa-2,4-dienoic acid] | 30 | 75 | 225 | 0.78 | 41 | 7 | 32 | 8 |
| CC(/C=C/C=C1\CCCc2cc3c(cc21)C(C)(C)CCC3(C)C)=C\C(=O)O [Compound 109b, (2E,4E)-3-Methyl-6-[(E)-3,4,5,6,7,8-hexahydro-5,5,8,8-tetramethyl-2H-anthracen-1-ylidene]hexa-2,4-dienoic acid] | 332 | 100 | 33 | 0.08 | 2270 | 1 | 28 | 3 |
| CC(/C=C/C=C1\CCOc2cc3c(cc21)C(C)(C)CCC3(C)C)=C\C(=O)O [Compound 119b, (2E,4E)-3-Methyl-6-[(E)-2,3,6,7,8,9-hexahydro-6,6,9,9-tetramethylbenzo[g]chromen-4-ylidene]hexa-2,4-dienoic acid] | 372 | 2 | 24 |  | 742 | 1 | 20 | 1 |
| CC(/C=C/CN1CCCCc2cc3c(cc21)C(C)(C)CCC3(C)C)=C\C(=O)O [Compound 138b, (2E,4E)-3-Methyl-6-[7,7,10,10-tetramethyl-2,3,4,5,7,8,9,10-octahydronaphtho[2,3-6]azepinyl)hexa-2,4-dienoic acid] | 276 |  | > 1000 |  | 301 | > 10000 | > 10000 | > 10000 |
| CC(/C=C/C=C1/CCOc2cc3c(cc21)C(C)(C)CCC3(C)C)=C\C(=O)O [Compound 144b] | 146 | 10 | 145 | 0.6 | 40 | 2 | 14 | 3 |
